Data as given in patent publication US8148366B2, “Substituted pyrazolo[3,4-E][diazepin-6-5(H)ones and analogues thereof, their preparation and their use as antibacterial medicaments” (Novexel SA, priority 2008, dated 2012).
Values after ≈ are worked out from the molar mass of the structure shown.

Tested on: Pseudomonas aeruginosa (1771 Wild-type strain)
Experiment: Activity in vitro, method of dilutions in liquid medium (M.I.C.)
Assay type: cell-based
Conditions: incubation 24 hours at 37° C., growth inhibition by transillumination
Protocol: Activity in vitro, method of dilutions in liquid medium:
A series of tubes is prepared, into which the same quantity of sterile nutritive medium is distributed, increasing quantities of the product to be studied are distributed into each tube then each tube is seeded with a bacterial strain. After incubation for 24 hours in an oven at 37° C., growth inhibition is assessed by transillumination, which makes it possible to determine the minimum inhibitory concentrations (M.I.C.) expressed in μg/ml.
Tests are thus carried out with the products of Examples 1 to 19 in comparison with the products of Examples 11 of the Application WO 04/052891 and 18 of the Application WO 02/100860.

MIC (μg/mL) 24 h (P, aerug, 1771) [µg/mL]	Compound
0.5 (≈ 1.51 µM)	N=C(N)n1ncc2c1[C@@H](CN)N1C[C@H]2N(OS(=O)(=O)O)C1=O (relative stereo) [Ex9]
0.5 (≈ 1.25 µM)	NC[C@@H]1c2nn(C(=O)N3CCNCC3)cc2[C@H]2CN1C(=O)N2OS(=O)(=O)O (relative stereo) [Ex2, trans 8-(aminomethyl)-2-(4-piperazine-1-carbonyl)-4,8-dihydro-5-(sulphooxy)-4,7-methano-7H-pyrazolo[3,4-e][1,3]diazepin-6(5H)-one]
0.5 (≈ 1.58 µM)	Cn1ncc2c1[C@@H](CN)N1C[C@H]2N(OC(F)(F)C(=O)O)C1=O (relative stereo) [Ex18, trans 8-(amino-methyl)-4,8-dihydro-1-methyl-6-oxo-5-(carboxy-difluoro-methoxy)-4,7-methano-7H-pyrazolo[3,4-e][1,3] diazepin-6(5H)-one]

Compound	MIC (μg/mL) 24 h (P, aerug, 1771) [µg/mL]
trans 8-(aminomethyl)-2-amino-carbamoyl-4,8-dihydro-5-(sulphooxy)-4,7-methano-7H-pyrazolo[3,4-e][1,3]diazepin-6(5H)-one [Ex19]	0.5

Same assay, conditions: incubation 24 hours at 37° C., growth inhibition by transillumination, read-out: MIC (μg/mL) 24 h (P, aerug, 1771)

Compound	MIC [µg/mL]
CCNC(=O)n1ncc2c1[C@@H](CNC(=N)N)N1C[C@H]2N(OS(=O)(=O)O)C1=O (relative stereo) [Ex15, trans 8-(guanidino-methyl)-1-ethylcarbamoyl-4,8-dihydro-5-(sulphooxy)-4,7-methano-7H-pyrazolo[3,4-e][1,3]diazepin-6(5H)-one]	> 32
CCNC(=O)n1cc2c(n1)[C@@H](CNC(=N)N)N1C[C@H]2N(OS(=O)(=O)O)C1=O (relative stereo) [Ex16, trans 8-(guanidino-methyl)-2-ethylcarbamoyl-4,8-dihydro-5-(sulphooxy)-4,7-methano-7H-pyrazolo[3,4-e][1,3] diazepin-6(5H)-one]	16 (≈ 39.8 µM)
N=C(N)NC[C@@H]1c2[nH]ncc2[C@H]2CN1C(=O)N2OS(=O)(=O)O (relative stereo) [Ex13, trans 8-(guanidino-methyl)-4,8-dihydro-5-(sulphooxy)-4,7-methano-7H-pyrazolo[3,4-e][1,3]diazepin-6(5H)-one]	1 (≈ 3.02 µM)
NC[C@@H]1c2nn(C(=O)N3CCCC3)cc2[C@H]2CN1C(=O)N2OS(=O)(=O)O (relative stereo) [Ex4, trans 8-(aminomethyl)-4,8-dihydro-2-(pyrrolidine-1-carbonyl)-5-(sulphooxy)-4,7-methano-7H-pyrazolo[3,4-e][1,3]diazepin-6(5H)-one]	8 (≈ 20.7 µM)
CC(N)CCNC(=O)n1cc2c(n1)[C@@H](CN)N1C[C@H]2N(OS(=O)(=O)O)C1=O (relative stereo) [Ex6, trans 8-(aminomethyl)-2-[(3-amino-butyl)carbamoyl]-4,8-dihydro-5-(sulphooxy)-4,7-methano-7H-pyrazolo[3,4-e][1,3] diazepin-6(5H)-one]	4 (≈ 9.92 µM)

Next, values leading:

MIC [µg/mL]	Compound
1 (≈ 2.57 µM)	NC[C@@H]1c2nn(C(=O)NCC(N)=O)cc2[C@H]2CN1C(=O)N2OS(=O)(=O)O (relative stereo) [Ex7, trans 8-(aminomethyl)-2-(carbamoylmethyl-carbamoyl)-4,8-dihydro-5-(sulphooxy)-4,7-methano-7H-pyrazolo[3,4-e][1,3]diazepin-6(5H)-one]
1 (≈ 2.48 µM)	CN(C)CCNC(=O)n1cc2c(n1)[C@@H](CN)N1C[C@H]2N(OS(=O)(=O)O)C1=O (relative stereo) [Ex3, trans 8-(aminomethyl)-4,8-dihydro-2-(2-dimethylaminoethylcarbamoyl)-5-(sulphooxy)-4,7-methano-7H-pyrazolo[3,4-e][1,3] diazepin-6(5H)-one]
0.5 (≈ 1.28 µM)	NC[C@@H]1c2nn(CCC(N)C(=O)O)cc2[C@H]2CN1C(=O)N2OS(=O)(=O)O (relative stereo) [Ex12, trans 8-(amino-methyl)-2-(3-amino-3-carboxy-propyl)-4,8-dihydro-5-(sulphooxy)-4,7-methano-7H-pyrazolo[3,4-e][1,3] diazepin-6(5H)-one]
0.5 (≈ 1.28 µM)	NCCCNC(=O)n1cc2c(n1)[C@@H](CN)N1C[C@H]2N(OS(=O)(=O)O)C1=O (relative stereo) [Ex5, trans 8-(aminomethyl)-2-[(3-amino-propyl)carbamoyl]-4,8-dihydro-5-(sulphooxy)-4,7-methano-7H-pyrazolo[3,4-e][1,3] diazepin-6(5H)-one]
0.25 (≈ 0.624 µM)	NC[C@@H]1c2nn(C(=O)C3CCNCC3)cc2[C@H]2CN1C(=O)N2OS(=O)(=O)O (relative stereo) [Ex11, trans-8-(amino-methyl)-4,8-dihydro-2-(piperidine-4-carbonyl)-5-(sulphooxy)-4,7-methano-7H-pyrazolo[3,4-e][1,3]diazepin-6(5H)-one]
1 (≈ 2.67 µM)	N=C(N)NC[C@@H]1c2nn(C(N)=O)cc2[C@H]2CN1C(=O)N2OS(=O)(=O)O (relative stereo) [Ex17, trans 8-(guanidino-methyl)-2-carbamoyl-4,8-dihydro-5-(sulphooxy)-4,7-methano-7H-pyrazolo[3,4-e][1,3]diazepin-6(5H)-one]
0.5 (≈ 1.51 µM)	N=C(N)n1cc2c(n1)[C@@H](CN)N1C[C@H]2N(OS(=O)(=O)O)C1=O (relative stereo) [Ex10, trans 8-(aminomethyl)-2-(carbamimidoyl)-4,8-dihydro-5-(sulphooxy)-4,7-methano-7H-pyrazolo[3,4-e] [1,3]diazepin-6(5H)-one]
